One assay concerns the target T1, TLR7 (Homo sapiens, UniProt Q9NYK1).
T1 construct: expressed in transfected cells; host or cells: HEK/293 cells carrying TLR7 and an NF-kB luciferase reporter
T1 sequence (Q9NYK1 27-1049): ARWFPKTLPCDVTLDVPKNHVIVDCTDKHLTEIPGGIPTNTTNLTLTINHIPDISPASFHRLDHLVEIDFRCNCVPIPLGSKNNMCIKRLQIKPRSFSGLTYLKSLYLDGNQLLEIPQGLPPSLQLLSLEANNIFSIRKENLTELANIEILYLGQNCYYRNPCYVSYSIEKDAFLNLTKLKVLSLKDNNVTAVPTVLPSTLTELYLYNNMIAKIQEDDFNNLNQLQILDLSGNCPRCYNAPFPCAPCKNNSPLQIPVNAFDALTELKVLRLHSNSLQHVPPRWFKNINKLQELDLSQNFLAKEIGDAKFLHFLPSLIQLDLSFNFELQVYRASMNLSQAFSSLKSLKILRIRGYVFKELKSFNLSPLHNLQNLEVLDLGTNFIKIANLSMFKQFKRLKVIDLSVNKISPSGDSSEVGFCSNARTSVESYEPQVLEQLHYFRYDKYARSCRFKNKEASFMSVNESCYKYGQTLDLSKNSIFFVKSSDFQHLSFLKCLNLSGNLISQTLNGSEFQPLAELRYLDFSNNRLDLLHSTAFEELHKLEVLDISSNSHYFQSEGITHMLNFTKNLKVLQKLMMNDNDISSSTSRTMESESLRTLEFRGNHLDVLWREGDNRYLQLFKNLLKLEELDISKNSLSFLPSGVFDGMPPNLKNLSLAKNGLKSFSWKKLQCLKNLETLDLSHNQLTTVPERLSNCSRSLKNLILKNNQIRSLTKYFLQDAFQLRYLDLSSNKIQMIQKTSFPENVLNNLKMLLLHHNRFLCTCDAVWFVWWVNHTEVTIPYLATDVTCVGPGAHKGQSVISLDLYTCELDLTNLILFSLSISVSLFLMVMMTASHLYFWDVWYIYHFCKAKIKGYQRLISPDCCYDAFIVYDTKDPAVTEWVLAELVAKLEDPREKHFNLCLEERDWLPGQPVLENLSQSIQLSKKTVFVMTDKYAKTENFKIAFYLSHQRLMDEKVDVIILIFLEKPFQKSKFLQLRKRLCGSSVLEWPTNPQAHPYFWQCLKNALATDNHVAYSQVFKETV
Kind of assay: HEK/293 TLR7 Cell Assay. In kind it is cell-based. As to conditions: TLR7/NFKb HEK cells, R848 agonist 10 uM final concentration, Steady-Glo readout; read-out: TLR7 potency. The essentials: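 TLR7/NF-κB reporter HEK293 cells, 5000/well, cultured 24 h, then preincubated 30 min with compound before R848 agonist (10 uM final). After 5 h stimulation, Steady-Glo luciferase luminescence read.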

For another assay, the target named is T2, TLR8 (Homo sapiens, UniProt Q9NR97).
T2 construct: expressed in transfected cells; host or cells: HEK/293 reporter cells (NF-kB luciferase)
T2 sequence (Q9NR97 27-1041): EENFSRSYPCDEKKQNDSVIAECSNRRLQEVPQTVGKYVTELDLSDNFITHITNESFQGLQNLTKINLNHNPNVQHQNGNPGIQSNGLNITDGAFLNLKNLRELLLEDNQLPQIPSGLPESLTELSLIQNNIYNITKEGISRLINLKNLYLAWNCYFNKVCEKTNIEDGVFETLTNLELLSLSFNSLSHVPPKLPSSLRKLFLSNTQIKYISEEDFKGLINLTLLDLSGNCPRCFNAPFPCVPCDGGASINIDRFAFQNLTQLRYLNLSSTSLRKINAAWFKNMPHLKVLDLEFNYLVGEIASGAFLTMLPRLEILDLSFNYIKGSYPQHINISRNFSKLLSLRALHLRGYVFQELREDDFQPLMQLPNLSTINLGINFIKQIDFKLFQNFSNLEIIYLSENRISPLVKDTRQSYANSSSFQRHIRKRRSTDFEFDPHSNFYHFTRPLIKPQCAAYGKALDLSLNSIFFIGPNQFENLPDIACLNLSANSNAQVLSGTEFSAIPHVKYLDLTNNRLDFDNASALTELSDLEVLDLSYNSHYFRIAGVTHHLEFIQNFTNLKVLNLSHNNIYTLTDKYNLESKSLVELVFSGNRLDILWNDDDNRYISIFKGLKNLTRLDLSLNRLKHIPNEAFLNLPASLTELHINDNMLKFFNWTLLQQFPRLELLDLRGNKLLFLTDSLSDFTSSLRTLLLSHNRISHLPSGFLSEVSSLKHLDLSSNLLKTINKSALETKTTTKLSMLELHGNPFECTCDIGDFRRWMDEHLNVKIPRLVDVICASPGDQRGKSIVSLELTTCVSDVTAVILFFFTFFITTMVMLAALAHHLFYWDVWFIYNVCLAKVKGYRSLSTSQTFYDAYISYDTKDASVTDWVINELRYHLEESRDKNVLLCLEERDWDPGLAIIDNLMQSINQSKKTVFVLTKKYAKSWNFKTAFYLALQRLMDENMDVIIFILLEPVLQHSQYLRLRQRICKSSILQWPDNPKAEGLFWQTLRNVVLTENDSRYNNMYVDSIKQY
Kind of assay: HEK/293 TLR8 Cell Assay. In kind it is cell-based. As to conditions: HEK cells, R848 agonist 30 uM final concentration, Steady-Glo readout; read-out: TLR8 potency.

Drawing on patent US20210300940A1 (Merck Patent GmbH, priority 2018, published 2021), this text covers IC50 for 19 compounds.

Structures are written as SMILES. A value given as a limit tells only on which side of the number the result lay.

Take `Cc1c(F)cc(N2C[C@@H](C)C[C@@H](NC(=O)[C@@H](N)CC(N)=O)C2)c2cccnc12` [Example 129, (2S)-2-amino-N-[(3R,5S)-1-(7-fluoro-8-methylquinolin-5-yl)-5-methylpiperidin-3-yl]butanediamide]: the IC50 is 75 to 150 nM on TLR7 and under 75 nM at TLR8.

For `Cc1ccc(N2C[C@@H](C)C[C@@H](NC(=O)[C@@H](N)CC(N)=O)C2)c2cccnc12` [Example 130, (2S)-2-amino-N-[(3R,5S)-5-methyl-1-(8-methylquinolin-5-yl)piperidin-3-yl]butanediamide], the values for the IC50 on TLR7 and on TLR8 were 75 to 150 nM and under 75 nM, respectively.

Turning to `C[C@H]1C[C@@H](NC(=O)C[C@@H]2CCNC[C@@H]2F)CN(c2ccc(C#N)c3ncncc23)C1` [Example 131, N-[(3R,5S)-1-(8-cyanoquinazolin-5-yl)-5-methylpiperidin-3-yl]-2-[(3R,4S)-3-fluoropiperidin-4-yl]acetamide], the IC50 at TLR7 was under 75 nM; on TLR8 it was over 150 nM.

For the compound `C[C@H]1C[C@@H](NC(=O)C[C@H]2CCNC[C@H]2F)CN(c2ccc(C#N)c3ncncc23)C1` [Example 132, N-[(3R,5S)-1-(8-cyanoquinazolin-5-yl)-5-methylpiperidin-3-yl]-2-[(3S,4R)-3-fluoropiperidin-4-yl]acetamide], the IC50 on TLR7 is under 75 nM; on TLR8, 75 to 150 nM.

As for `Cc1ccc(N2C[C@@H](C)C[C@@H](NC(=O)C(N)C3CC3)C2)c2cccnc12` (stereo partly drawn) [Example 133, 2-Amino-2-cyclopropyl-N-[(3R,5S)-5-methyl-1-(8-methyl-quinolin-5-yl)-piperidin-3-yl]-acetamide], the IC50 on TLR7 and at TLR8 was under 75 nM in each case.

Take `Cc1c(F)cc(N2C[C@@H](C)C[C@@H](NC(=O)[C@@H](N)[C@@H](C)O)C2)c2cccnc12` [Example 134, (2S,3R)-2-Amino-N-[(3R,5S)-1-(7-fluoro-8-methyl-quinolin-5-yl)-5-methyl-piperidin-3-yl]-3-hydroxy-butyramide]: the IC50 at TLR7 and on TLR8 was 75 to 150 nM in each case.

Take `Cc1c(F)cc(N2C[C@@H](C)C[C@@H](NC(=O)[C@H](N)CO)C2)c2cccnc12` [Example 135, (R)-2-Amino-N-[(3R,5S)-1-(7-fluoro-8-methyl-quinolin-5-yl)-5-methyl-piperidin-3-yl]-3-hydroxy-propionamide]: the IC50 at TLR7 and at TLR8 was under 75 nM in each case.

As for `Cc1ncc(N2C[C@H](NC(=O)CC3CCNCC3F)C[C@H](C(F)(F)F)C2)c2cccnc12` (stereo partly drawn) [Example 136, 2-(3-Fluoro-piperidin-4-yl)-N-[(3R,5S)-1-(8-methyl-[1,7]naphthyridin-5-yl)-5-trifluoromethyl-piperidin-3-yl]-acetamide], the IC50 is 75 to 150 nM at TLR7 and under 75 nM at TLR8.

In the case of `Cc1ncc(N2C[C@H](NC(=O)C(F)C3CCNC3)C[C@H](C(F)(F)F)C2)c2cccnc12` (stereo partly drawn) [Example 137, 2-Fluoro-N-[(3R,5S)-1-(8-methyl-[1,7]naphthyridin-5-yl)-5-trifluoromethyl-piperidin-3-yl]-2-pyrrolidin-3-yl-acetamide], the IC50 on TLR7 and on TLR8 was under 75 nM in each case.

With `N#Cc1ccc(N2C[C@H](NC(=O)CC3CCNCC3F)C[C@H](C(F)(F)F)C2)c2cccnc12` (stereo partly drawn) [Example 138, N-[(3R,5S)-1-(8-Cyano-quinolin-5-yl)-5-trifluoromethyl-piperidin-3-yl]-2-(3-fluoro-piperidin-4-yl)-acetamide], the IC50 at TLR7 and at TLR8 was under 75 nM throughout.

Turning to `CN(C)CCNC(=O)N[C@@H]1C[C@H](C(F)(F)F)CN(c2ccc(C#N)c3nccnc23)C1` [Example 139, 1-[(3R,5S)-1-(8-cyanoquinoxalin-5-yl)-5-(trifluoromethyl)piperidin-3-yl]-3-[2-(dimethylamino)ethyl]urea], the IC50 at TLR7 and on TLR8 was 75 to 150 nM in each case.

Take `C[C@H]1C[C@@H](NC(=O)NCCN(C)C)CN(c2ccc(C#N)c3nccnc23)C1` [Example 140, 1-[(3R,5S)-1-(8-cyanoquinoxalin-5-yl)-5-methylpiperidin-3-yl]-3-[2-(dimethylamino)ethyl]urea]: the IC50 on TLR7 and on TLR8 was under 75 nM in each case.

For `C[C@H]1C[C@@H](NC(=O)NCCN(C)C)CN(c2ccc(C(F)(F)F)c3nccnc23)C1` [Example 141, 3-[2-(dimethylamino)ethyl]-1-[(3R,5S)-5-methyl-1-[8-(trifluoromethyl)quinoxalin-5-yl]piperidin-3-yl]urea], the IC50 on TLR7 and on TLR8 was under 75 nM in each case.

As to `CN(C)CCNC(=O)N[C@@H]1C[C@H](C(F)(F)F)CN(c2ccc(C(F)(F)F)c3nccnc23)C1` [Example 142, 3-[2-(dimethylamino)ethyl]-1-[(3R,5S)-5-(trifluoromethyl)-1-[8-(trifluoromethyl)quinoxalin-5-yl]piperidin-3-yl]urea], the IC50 on TLR7 and at TLR8 was 75 to 150 nM in each case.

For the compound `CN(C)CCNC(=O)N[C@@H]1C[C@H](C(F)(F)F)CN(c2ccc(C#N)c3ncccc23)C1` [Example 143, 1-[(3R,5S)-1-(8-cyanoquinolin-5-yl)-5-(trifluoromethyl)piperidin-3-yl]-3-[2-(dimethylamino)ethyl]urea], the IC50 on TLR7 is under 75 nM; on TLR8, 75 to 150 nM.

As for `CN(C)CCNC(=O)N[C@@H]1C[C@H](C(F)(F)F)CN(c2ccc(C(F)(F)F)c3ncccc23)C1` [Example 144, 3-[2-(dimethylamino)ethyl]-1-[(3R,5S)-5-(trifluoromethyl)-1-[8-(trifluoromethyl)quinolin-5-yl]piperidin-3-yl]urea], the IC50 is 75 to 150 nM at TLR7 and under 75 nM on TLR8.

As to `Cc1c(F)cc(N2C[C@@H](C)C[C@@H](NC(=O)NCCN(C)C)C2)c2cccnc12` [Example 145, 3-[2-(dimethylamino)ethyl]-1-[(3R,5S)-1-(7-fluoro-8-methylquinolin-5-yl)-5-methylpiperidin-3-yl]urea], the IC50 at TLR7 and on TLR8 was under 75 nM in each case.

Take `C[C@H]1C[C@@H](NC(=O)N[C@@H]2CCCNC2)CN(c2ccc(C(F)(F)F)c3ncccc23)C1` [Example 146, 3-[(3R,5S)-5-methyl-1-[8-(trifluoromethyl)quinolin-5-yl]piperidin-3-yl]-1-[(3R)-piperidin-3-yl]urea]: the figures for the IC50 on TLR7 and on TLR8 were over 150 nM and under 75 nM, respectively.

Turning to `C[C@H]1C[C@@H](NC(=O)NC2CCN(C)CC2)CN(c2ccc(C(F)(F)F)c3ncccc23)C1` [Example 147, 1-(1-Methyl-piperidin-4-yl)-3-[(3R,5S)-5-methyl-1-(8-trifluoromethyl-quinolin-5-yl)-piperidin-3-yl]-urea], the IC50 at TLR7 is over 150 nM; on TLR8 it was under 75 nM.
